Test results as given in EP4000623A1, “5-(2-(1H-INDOL-3-YL))-ETHYL)- PIPERAZIN-2-ONE DERIVATIVES FOR USE IN THE TREATMENT OF VIRAL INFECTIONS BY VIRUSES OF THE FAMILY CORONAVIRIDAE” (Consejo Superior De Investigaciones Científicas, priority 2020, dated 2022).
Where two headings read alike, the source gives them in different places.

Experiments:
hCoV-229E-GFP = assay type: cell-based, Human coronavirus 229E
SARS-CoV-2 [1] = assay: Antiviral potency against SARS-CoV-2 in Vero-E6 cells (protection from virus-induced cytopathic effect / intracellular viral antigen accumulation); assay type: cell-based
[2] = Determination of cytotoxicity by MTT colorimetric assay; assay type: cell-based; conditions: African green monkey, uninfected Vero-E6 cells, 50 to 0.78 µM
Procedure: Determination of cytotoxicity by MTT colorimetric assay: To evaluate the cytotoxicity profile of the selected compounds MTT assays were performed in Vero-E6 cells. Uninfected cells were incubated with a range of compound concentrations (from 50 to 0.78 µM) for forty-eight hours, time at which the MTT substrate [3-(4,5-dimethylthiazol-2-yl)-2,5-diphenyltetrazolium bromide] was added and the formation of formazan precipitates was evaluated two hours later, using a colorimetric readout. Vehicle-treated cells were used as reference (100%).

SARS-CoV-2 [3] = assay: Intracellular viral RNA quantitation by RT-qPCR; assay type: cell-based; conditions: 15µM; for intracellular viral RNA levels (in words): as compared with the uninfected controls; for % RNA relative to DMSO: Vero-E6, MOI 0.001, 48 h, SARS-CoV-2 E gene normalised to 18S, DMSO set as 100%
[4] = Severe acute respiratory syndrome coronavirus 2, Vero C1008, SARS-CoV-2 strain NL/2020, Vero-E6 cells, mean, read-out: EC50 mean
[5] = Severe acute respiratory syndrome coronavirus 2, Vero C1008, SARS-CoV-2 strain NL/2020, Vero-E6 cells, mean, read-out: EC90 mean

| SMILES | % Reduction of hCoV-229E-GFP propagation (hCoV-229E-GFP) [%] | EC50 (SARS-CoV-2 [1]; Severe acute respiratory syndrome coronavirus 2, Vero C1008, read-out: EC50 mean) [µM] | EC90 (SARS-CoV-2 [1]; Severe acute respiratory syndrome coronavirus 2, Vero C1008, read-out: EC90 mean) [µM] | CC50 at 48 h [2] [µM] | intracellular viral RNA levels (in words) (SARS-CoV-2 [3]) | % RNA relative to DMSO (SARS-CoV-2 [3]) | EC50 (SARS-CoV-2 [1]; [4]) [µM] | EC90 (SARS-CoV-2 [1]; [5]) [µM] |
| --- | --- | --- | --- | --- | --- | --- | --- | --- |
| CC(C)(C)OC(=O)NCCCC[C@H]1C(=O)NCC([C@H](Cc2cn(C(=O)OC(C)(C)C)c3ccccc23)NC(=O)OC(C)(C)C)N1Cc1ccccc1 (stereo in doubt) [Example 4, (5R,3S)-4-benzyl-5-((S)-1-(tert-butoxycarbonyl)amino-2-(1-(tert-butoxycarbonyl)(indol-3-yl))-ethyl)-3-(4-(tert-butoxycarbonyl)amino-butyl)-2-oxopiperazine] | 97 | 1.6 | 14.7 | > 50 |  |  |  |  |
| CC(C)(C)OC(=O)CN1[C@@H](CCCCNC(=O)OC(C)(C)C)C(=O)NC[C@H]1[C@H](Cc1cn(C(=O)OC(C)(C)C)c2ccccc12)NC(=O)OC(C)(C)C [Example 6, (5S,3S)-5-((S)-1-(tert-butoxycarbonyl)amino-2-(1-(tert-butoxycarbonyl)-(indol-3-yl))-ethyl)-4(tert-butoxycarbonyl)methyl-3-(4-(tert-butoxycarbonyl)aminobutyl)-2-oxopiperazine] | 98 |  |  | > 50 | virtually undetectable levels | 10^-4% | 3.17 | 9.67 |
| CC(C)(C)OC(=O)NCCCC[C@@H]1N[C@H]([C@H](Cc2cn(C(=O)OC(C)(C)C)c3ccccc23)NC(=O)OC(C)(C)C)CNC1=O [Example 2, (5S,3S)-5-((S)-1-(tert-butoxycarbonyl)amino-2-(1-(tert-butoxycarbonyl)(indol-3-yl))-ethyl)-3-(4-(tert-butoxycarbonyl)amino-butyl)-2-oxopiperazine] |  |  |  | > 50 |  |  | 15.3 | 46.7 |
| CC(C)(C)OC(=O)NCCCC[C@H]1C(=O)NC[C@H]([C@H](Cc2cn(C(=O)OC(C)(C)C)c3ccccc23)NC(=O)OC(C)(C)C)N1Cc1ccccc1 [Example 3, (5R,3S)-4-benzyl-5-((S)-1-(tert-butoxycarbonyl)amino-2-(1-(tert-butoxycarbonyl)(indol-3-yl))-ethyl)-3-(4-(tert-butoxycarbonyl)amino-butyl)-2-oxopiperazine] | 94 |  |  | > 50 | virtually undetectable levels | 10^-2% | 6.33 | 14.3 |
| CC(C)(C)OC(=O)CN1[C@@H]([C@H](Cc2cn(C(=O)OC(C)(C)C)c3ccccc23)NC(=O)OC(C)(C)C)CNC(=O)[C@@H]1CCCCNC(=O)OC(C)(C)C [Example 5, (5R,3S)-5-((S)-1-(tert-butoxycarbonyl)amino-2-(1-(tert-butoxycarbonyl)-(indol-3-yl))-ethyl)-4(tert-butoxycarbonyl)methyl-3-(4-(tert-butoxycarbonyl)aminobutyl)-2-oxopiperazine] | 94 |  |  | > 50 |  |  | 1.93 | 7.33 |
